Laboratory results reported in patent US20100267561A1, “HERBICIDAL PYRIDAZINONE DERIVATIVES” (priority 2007, published 2010).
Where two headings read alike, the source gives them in different places.

Assays:
Assay in all cases: Test B pre-/postemergence plant response
Format in all cases: in vivo
[1] = system: bermudagrass (Cynodon dactylon); settings: Preemergence
Method in brief: (§1)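 Preemergence and postemergence (plants 2-18 cm, 1- to 4-leaf stage) applications used test chemicals in a non-phytotoxic solvent with surfactant. Plants were held in a greenhouse 13 to 15 days, then rated visually against controls on a 0-100 scale (0 no effect, 100 complete control).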

[2] = system: downy bromegrass (Bromus tectorum); settings: for pest or weed control at 31 g/ha: 31 g ai/ha; for pest or weed control at 62 g/ha: 62 g ai/ha, 100 complete control
Method in brief: as §1

[3] = system: green foxtail (Setaria viridis); settings: for pest or weed control at 31 g/ha: 31 g ai/ha; for pest or weed control at 62 g/ha: 62 g ai/ha, 100 complete control
Method in brief: as §1

[4] = system: wild oat (Avena fatua); settings: for pest or weed control at 31 g/ha / pest or weed control at 62 g/ha: Avena fatua, read-out: Plant response rating, Oat, Wild; for pest or weed control at 31 g/ha: 31 g ai/ha; for pest or weed control at 62 g/ha: 62 g ai/ha, 100 complete control
Method in brief: as §1

[5] = system: giant foxtail (Setaria faberii); settings: for pest or weed control at 31 g/ha: 31 g ai/ha; for pest or weed control at 62 g/ha: 62 g ai/ha, 100 complete control
Method in brief: as §1

[6] = system: lambsquarters (Chenopodium album); settings: for pest or weed control at 31 g/ha / pest or weed control at 62 g/ha: Chenopodium album, read-out: Plant response rating, Lambsquarters; for pest or weed control at 31 g/ha: 31 g ai/ha; for pest or weed control at 62 g/ha: 62 g ai/ha, 100 complete control
Method in brief: as §1

[7] = system: blackgrass (Alopecurus myosuroides); settings: for pest or weed control at 31 g/ha: 31 g ai/ha; for pest or weed control at 62 g/ha: 62 g ai/ha, 100 complete control
Method in brief: as §1

[8] = 8 g ai/ha, postemergence, 0-100 scale
[9] = Preemergence, 8 g ai/ha, scale 0 to 100
[10] = Preemergence, 16 g ai/ha, scale 0 to 100
[11] = 16 g ai/ha, postemergence, 0-100 scale
[12] = post-emergence, Postemergence, scale 0 to 100
[13] = post-emergence, Postemergence, scale 0 to 100, 0 no effect
[14] = pre-emergence, Preemergence, scale 0 to 100 (0 no effect, 100 complete control)
[15] = pre-emergence, Preemergence, 0 to 100 scale, 0 no effect

**Q.** What does the source list for `Cc1nn(C)c(=O)c(-n2nc(-c3ccc(C(F)(F)F)cc3)cc2C)c1O` [Compound 75, 5-hydroxy-2,6-dimethyl-4-[5-methyl-3-[4-(trifluoromethyl)phenyl]-1H-pyrazol-1-yl]-3(2H)-pyridazinone]?
**A.** pest or weed control at 31 g/ha ([1]; Cynodon dactylon, pre-emergence, 31 g ai/ha, scale 0 to 100 (0 no effect, 100 complete control), read-out: Plant response rating, Bermudagrass): 65%; pest or weed control at 62 g/ha ([1]; Cynodon dactylon, pre-emergence, 62 g ai/ha, 0 to 100 scale, 0 no effect, 100 complete control, read-out: Plant response rating, Bermudagrass): 98%; Bermudagrass plant response rating ([1]; 16 g ai/ha, scale 0 to 100 (0 no effect, 100 complete control)): 0; Bromegrass, Downy plant response rating [2, 8]: 0; pest or weed control at 16 g/ha ([2]; Bromus tectorum, post-emergence, Postemergence, 16 g ai/ha, scale 0 to 100, read-out: Plant response rating, Bromegrass, Downy): 10%; pest or weed control at 31 g/ha ([2]; Bromus tectorum, post-emergence, Postemergence, scale 0 to 100, read-out: Plant response rating, Bromegrass, Downy): 30%; pest or weed control at 62 g/ha ([2]; Bromus tectorum, post-emergence, Postemergence, scale 0 to 100, 0 no effect, read-out: Plant response rating, Bromegrass, Downy): 50%; pest or weed control at 31 g/ha ([2]; Bromus tectorum, pre-emergence, Preemergence, scale 0 to 100 (0 no effect, 100 complete control), read-out: Plant response rating, Bromegrass, Downy): 50%; pest or weed control at 62 g/ha ([2]; Bromus tectorum, pre-emergence, Preemergence, 0 to 100 scale, 0 no effect, read-out: Plant response rating, Bromegrass, Downy): 80%; Bromegrass, Downy plant response rating [2, 9]: 0; Bromegrass, Downy plant response rating [2, 10]: 20; Foxtail, Green plant response rating [3, 8]: 0; Foxtail, Green plant response rating [3, 9]: 0; Foxtail, Green plant response rating [3, 10]: 30; pest or weed control at 16 g/ha ([3]; Setaria viridis, post-emergence, Postemergence, 16 g ai/ha, scale 0 to 100, read-out: Plant response rating, Foxtail, Green): 40%; pest or weed control at 31 g/ha ([3]; Setaria viridis, post-emergence, Postemergence, scale 0 to 100, read-out: Plant response rating, Foxtail, Green): 80%; pest or weed control at 62 g/ha ([3]; Setaria viridis, post-emergence, Postemergence, scale 0 to 100, 0 no effect, read-out: Plant response rating, Foxtail, Green): 95%; pest or weed control at 31 g/ha ([3]; Setaria viridis, pre-emergence, Preemergence, scale 0 to 100 (0 no effect, 100 complete control), read-out: Plant response rating, Foxtail, Green): 50%; pest or weed control at 62 g/ha ([3]; Setaria viridis, pre-emergence, Preemergence, 0 to 100 scale, 0 no effect, read-out: Plant response rating, Foxtail, Green): 80%; Oat, Wild plant response rating [4, 8]: 0; Oat, Wild plant response rating [4, 11]: 30; pest or weed control at 31 g/ha [4, 12]: 85%; pest or weed control at 62 g/ha [4, 13]: 98%; pest or weed control at 31 g/ha [4, 14]: 40%; pest or weed control at 62 g/ha [4, 15]: 50%; Oat, Wild plant response rating [4, 9]: 0; Oat, Wild plant response rating [4, 10]: 0; Foxtail, Giant plant response rating [5, 8]: 50; Foxtail, Giant plant response rating [5, 9]: 0; Foxtail, Giant plant response rating [5, 10]: 0; pest or weed control at 16 g/ha ([5]; Setaria faberi, post-emergence, Postemergence, 16 g ai/ha, scale 0 to 100, read-out: Plant response rating, Foxtail, Giant): 70%; pest or weed control at 31 g/ha ([5]; Setaria faberi, post-emergence, Postemergence, scale 0 to 100, read-out: Plant response rating, Foxtail, Giant): 80%; pest or weed control at 62 g/ha ([5]; Setaria faberi, post-emergence, Postemergence, scale 0 to 100, 0 no effect, read-out: Plant response rating, Foxtail, Giant): 85%; pest or weed control at 31 g/ha ([5]; Setaria faberi, pre-emergence, Preemergence, scale 0 to 100 (0 no effect, 100 complete control), read-out: Plant response rating, Foxtail, Giant): 50%; pest or weed control at 62 g/ha ([5]; Setaria faberi, pre-emergence, Preemergence, 0 to 100 scale, 0 no effect, read-out: Plant response rating, Foxtail, Giant): 95%; Lambsquarters plant response rating [6, 8]: 0; Lambsquarters plant response rating [6, 11]: 0; pest or weed control at 31 g/ha [6, 12]: 0%; pest or weed control at 62 g/ha [6, 13]: 0%; pest or weed control at 31 g/ha [6, 14]: 0%; pest or weed control at 62 g/ha [6, 15]: 0%; Lambsquarters plant response rating [6, 9]: 0; Lambsquarters plant response rating [6, 10]: 0; Blackgrass plant response rating [7, 8]: 10; pest or weed control at 16 g/ha ([7]; Alopecurus myosuroides, post-emergence, Postemergence, 16 g ai/ha, scale 0 to 100, read-out: Plant response rating, Blackgrass): 50%; pest or weed control at 31 g/ha ([7]; Alopecurus myosuroides, post-emergence, Postemergence, scale 0 to 100, read-out: Plant response rating, Blackgrass): 65%; pest or weed control at 62 g/ha ([7]; Alopecurus myosuroides, post-emergence, Postemergence, scale 0 to 100, 0 no effect, read-out: Plant response rating, Blackgrass): 95%; pest or weed control at 31 g/ha ([7]; Alopecurus myosuroides, pre-emergence, Preemergence, scale 0 to 100 (0 no effect, 100 complete control), read-out: Plant response rating, Blackgrass): 60%; pest or weed control at 62 g/ha ([7]; Alopecurus myosuroides, pre-emergence, Preemergence, 0 to 100 scale, 0 no effect, read-out: Plant response rating, Blackgrass): 90%; Blackgrass plant response rating [7, 9]: 0; Blackgrass plant response rating [7, 10]: 20
